Source: paper PMC8765048 (JCI Insight, 2022)
Like-named read-outs stand apart in the source and are kept apart here.

Legend:
[1] = test system: SARS-CoV-2 B.1.351 (Beta); assay: microbe, parasite or virus in culture; type: cell-based
[2] = test system: SARS-CoV-2 B.1.617.2 (Delta); assay: microbe, parasite or virus in culture; type: cell-based
[3] = test system: SARS-CoV-2 B.1.351 (Beta); assay: microbe, parasite or virus in culture; type: cell-based; remark: listed apart in the source
[4] = test system: SARS-CoV-2 P.2 (Zeta); assay: microbe, parasite or virus in culture; type: cell-based
[5] = test system: SARS-CoV-2; assay: Combinatorial sangivamycin/remdesivir efficacy testing, Caco-2 cells; type: cell-based; details: Severe acute respiratory syndrome coronavirus 2, Caco-2; read-out: IC50 (nM), S:R by [Sangivamycin]
[6] = test system: Huh-7 cells; assay: Acute mitochondrial or glycolytic stress assay (Seahorse XF96e); type: cell-based, human
Excerpt: Other important measures of cell viability are mitochondrial integrity, function, cardiotoxicity, and genotoxicity, since other nucleoside analogs may vary in their effect on these endpoints ([29], [30]). Dyes commonly used to assess mitochondrial integrity are MitoTracker Green (MTG), a mitochondrial stain mostly localized to mitochondria based on hydrophobicity, and N-alkyl acridine orange (NAO), which binds to mitochondrial cardiolipin. Untreated Huh-7 cells and Huh-7 cells treated for 5 days with 100 nM sangivamycin were stained with MTG and NAO and imaged by fluorescence microscopy. […] To more quantitatively assess the impact of sangivamycin on mitochondrial integrity, we evaluated the effect of sangivamycin on mitochondrial metabolic function as well as cytoplasmic glycolytic function. The XF96e Seahorse instrument was used to quantify the oxygen consumption rate (OCR) over time in untreated control and sangivamycin-treated Huh-7 cells. […] Standard metabolic endpoints quantified with or without sangivamycin included sequential treatment and washout of cell cultures with oligomycin (ATP synthase inhibitor), carbonyl cyanide 4-(trifluoromethoxy)phenylhydrazone (FCCP; a proton gradient uncoupler), and antimycin A + rotenone (complex I and III blockers) (Supplemental Figure 7). […]

[7] = molecular target: T1, KCNH2 (hERG) (Homo sapiens, UniProt Q12809); assay: Potassium channel inhibition testing (QPatch HTX electrophysiology); type: cell-based
T1 construct: expressed in transfected cells; host or cells: HEK293T
Excerpt: The KCNH2 (hERG) functions as the α subunit of a cardiac potassium channel. Its inhibition by drugs has been implicated in fatal ventricular tachyarrhythmia ([31]). As a predictor of cardiotoxicity and genotoxicity, we therefore evaluated KCNH2 (hERG) inhibition and genotoxicity in the AMES mutagenicity assay.
Ruling out inhibition of KCNH2 (hERG) by a novel compound is a mandatory step in establishing drug safety. The effect of sangivamycin on KCNH2-derived cardiac potassium channels was assessed using HEK293T cells and the QPatch HTX electrophysiology platform (Evotech), following the manufacturer’s instructions. Sangivamycin was tested at 6 concentrations (cumulative concentration response, high test concentration of 10 μM). The percentage change in potassium channel tail current was used to calculate channel inhibition.

[8] = Plasma protein binding assessment (equilibrium dialysis); type: in vitro ADME; details: 37°C
Experimental: The plasma protein binding assay was performed by Cyprotex to assess sangivamycin plasma protein binding. Equilibrium dialysis was used to determine the extent of binding of a compound to plasma proteins. A semipermeable membrane separated a protein-containing compartment (PC) from a protein-free compartment (PF). The system was set to equilibrate at 37°C. The test compound present in each compartment was then quantified by LC-MS/MS. The extent of binding is reported as a fraction unbound (fu) value, which is calculated as fu = 1 – ([PC – PF]/PC).

[9] = test system: HEK293T (human embryonic kidney); assay: CellTox Green Cytotoxicity Assay; details: ratio > 1 cytostatic, ≤ 1 cytotoxic
[10] = test system: Huh-7 (human hepatocarcinoma); assay: CellTox Green Cytotoxicity Assay; details: ratio > 1 cytostatic, ≤ 1 cytotoxic
[11] = Severe acute respiratory syndrome coronavirus 2, Vero C1008, 18 h
[12] = Severe acute respiratory syndrome coronavirus 2, VeroE6/TMPRSS2, 18 h
[13] = Severe acute respiratory syndrome coronavirus 2, Calu-3, 48 h
[14] = Severe acute respiratory syndrome coronavirus 2, Calu-3, 24 h

T1 sequence (Q12809 whole entry): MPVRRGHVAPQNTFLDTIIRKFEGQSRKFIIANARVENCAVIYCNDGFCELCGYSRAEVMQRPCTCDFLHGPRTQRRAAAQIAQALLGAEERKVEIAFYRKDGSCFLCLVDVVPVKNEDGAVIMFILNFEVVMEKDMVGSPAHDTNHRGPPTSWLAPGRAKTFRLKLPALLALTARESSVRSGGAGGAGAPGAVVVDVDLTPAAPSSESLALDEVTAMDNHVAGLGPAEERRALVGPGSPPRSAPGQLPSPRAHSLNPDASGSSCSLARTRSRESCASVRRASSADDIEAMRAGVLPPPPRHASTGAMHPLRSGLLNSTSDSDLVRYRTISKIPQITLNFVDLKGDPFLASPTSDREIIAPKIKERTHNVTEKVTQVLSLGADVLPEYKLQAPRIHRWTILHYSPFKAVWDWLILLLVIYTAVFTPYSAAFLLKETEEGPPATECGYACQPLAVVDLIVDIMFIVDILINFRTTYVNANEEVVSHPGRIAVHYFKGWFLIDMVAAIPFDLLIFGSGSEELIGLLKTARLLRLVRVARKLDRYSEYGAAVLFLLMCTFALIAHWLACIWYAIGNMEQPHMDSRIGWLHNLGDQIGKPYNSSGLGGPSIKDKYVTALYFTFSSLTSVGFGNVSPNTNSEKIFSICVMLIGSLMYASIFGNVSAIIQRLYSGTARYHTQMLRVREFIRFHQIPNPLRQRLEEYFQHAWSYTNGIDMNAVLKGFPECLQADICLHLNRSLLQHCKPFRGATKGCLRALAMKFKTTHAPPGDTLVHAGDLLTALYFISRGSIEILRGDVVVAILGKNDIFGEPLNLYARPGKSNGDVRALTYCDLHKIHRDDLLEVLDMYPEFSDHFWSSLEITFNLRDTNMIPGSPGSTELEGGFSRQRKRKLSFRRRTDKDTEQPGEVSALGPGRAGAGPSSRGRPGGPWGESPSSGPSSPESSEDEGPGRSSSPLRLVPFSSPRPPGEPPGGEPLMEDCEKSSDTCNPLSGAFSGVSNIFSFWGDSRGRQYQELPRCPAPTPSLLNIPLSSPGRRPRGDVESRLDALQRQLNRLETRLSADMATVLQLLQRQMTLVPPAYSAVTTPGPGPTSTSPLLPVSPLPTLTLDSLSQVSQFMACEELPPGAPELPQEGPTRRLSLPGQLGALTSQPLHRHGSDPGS

With NC(=O)c1cn([C@@H]2O[C@H](CO)[C@@H](O)[C@H]2O)c2ncnc(N)c12 [Sangivamycin, sangivamycin] the “SI (selectivity index, CC50/IC50)” value ([1]; B.1.351 (Beta), Vero E6 cells) was >10.5, the IC50 [1, 11] was 57.4 nM and the IC90 [1, 11] was 224 nM. For the same compound, the IC50 [2] was 80.4 nM, the “SI (selectivity index, CC50/IC50)” value ([2]; B.1.617.2 (Delta), Vero E6/TMPRSS2 cells) was >7.5 and the IC50 [2, 12] was 80 nM. For the same compound, the IC90 [2, 12] was 263 nM, the “SI (selectivity index, CC50/IC50)” value ([3]; B.1.351 (Beta), Calu-3 cells) was >10.1 and the IC50 [3, 13] was 59.4 nM. The IC90 [3, 13] was 135 nM, the “SI (selectivity index, CC50/IC50)” value ([4]; P.2 (Zeta), Calu-3 cells) was >15.2 and the IC50 [4, 14] was 39.6 nM. The IC90 [4, 14] was 122 nM, the IC50 [5] was 39 nM and the “Acute effects on mitochondrial and glycolytic stress (Seahorse measurements)” value ([6]; 0.05–5 μM) was >5 µM. The “oxygen consumption rate (OCR) relative to untreated control cells” value ([6]; up to 5 μM) was “did not significantly change the OCR”, the IC50 [7] was > 10000 nM and the “effect on the KCNH2 (hERG)” value ([7]; 10 μM) was “had no effect”. The fraction unbound ([8]; human) was 0.83, the fraction unbound ([8]; mouse) was 0.879 and the “Ratio CellTox Green/CellTiter-Glo” value [9] was >5.65. For the same compound, the “Ratio CellTox Green/CellTiter-Glo” value [10] was >10.3.
